Data: publication PMC4226840, “An open-label study to determine the maximum tolerated dose of the multitargeted tyrosine kinase inhibitor CEP-11981 in patients with advanced cancer” (Investigational New Drugs, 2014)

Assays:
[1] = system: VEGFR-1; parameters: method as in PMID 22148921; conditions: in vitro; cited from earlier work
[2] = system: Tie-2; parameters: method as in PMID 22148921; conditions: cited from earlier work
[3] = Phase I dose escalation: MTD and DLTs; type: in vivo, human
Procedure: This was an open-label, nonrandomized, multicenter, dose-escalation phase I study of CEP-11981 in patients with advanced, relapsed/refractory solid tumors. The study was conducted in accordance with Good Clinical Practice: Consolidated Guidance approved by the International Conference on Harmonisation, and applicable national and local laws and regulations and approved by appropriate Independent Ethics Committees or Institutional Review Boards. All patients provided written consent before study procedures or assessments were performed.
The primary measures were MTD and DLTs. MTD was defined as the highest dose at which one-third or fewer of patients in a cohort experienced a DLT, which included grade ≥ 2 proteinuria, grade ≥ 3 nonhematologic toxicity (excluding hypertension and pain), grade ≥ 3 thrombocytopenia with bleeding, or grade 4 hematologic toxicity that was not clearly due to progressive cancer. Secondary measures included the pharmacokinetics of CEP-11981 after a single dose and multiple doses, the pharmacokinetic-pharmacodynamic profile of CEP-11981, safety, and preliminary efficacy. The efficacy endpoint was the proportion of patients who achieved complete or partial response on study (minimum of 6 weeks) according to Response Evaluation Criteria in Solid Tumors (RECIST) guidelines.
Oral CEP-11981 was administered once daily for the first 28 days of each 42-day cycle. Initial dose escalation from the starting dose of 3 mg/m^2 was by 40 % increments. After completion of additional toxicology studies and the preliminary analysis of plasma exposure in patients, the dose for the fourth cohort was doubled from the third cohort and thereafter the escalation followed a modified Fibonacci sequence. The final dose levels were: 3.0, 4.2, 5.9, 11.8, 19.7, 29.6, 41.4, 55.0, 73.0, 97.4, and 126.6 mg/m^2. The dose administered was rounded to the smallest capsule strength available. Dosing for a patient was to be stopped at the onset of a DLT and, at resolution within 14 days, could be resumed at a dose equal to 50 % of the patient’s current dose. […]

[4] = Plasma pharmacokinetics in patients, single and multiple doses; type: in vivo, human; conditions: for Mean (SD) Robs (observed accumulation ratio): multiple doses, AUCτ day 15/AUC0–24 day 1; for Mean (SD) Rpred (predicted accumulation ratio): AUC0–∞/AUC0–24 day 1
Procedure: Pharmacokinetic parameters calculated after multiple doses included AUC0-t, Cmax, Tmax, and t½, and observed accumulation ratio (Robs). […] Pharmacodynamics was assessed by VEGFR-2/KDR inhibitory activity in response to CEP-11981 treatment. […] The venous blood samples for pharmacokinetic-pharmacodynamic analysis were collected on days 1 and 15 of dosing during cycle 1 immediately before dose administration and at 1 h postdose, and on day 43. At each draw, 2 samples were obtained in 6-mL sodium heparinized vacutainers. Plasma was obtained and stored at −70 °C until shipment to the sponsor for analysis.

[5] = biological target: fibroblast growth factor receptor-1; parameters: method as in PMID 22148921; conditions: cited from earlier work
[6] = multiple doses (day 15, cycle 1), oral once daily, 3.0 mg/m^2, n = 3
[7] = multiple doses (day 15, cycle 1), oral once daily, 4.2 mg/m^2, n = 3
[8] = multiple doses (day 15, cycle 1), oral once daily, 5.9 mg/m^2, n = 5
[9] = multiple doses (day 15, cycle 1), oral once daily, 11.8 mg/m^2, n = 3
[10] = multiple doses (day 15, cycle 1), oral once daily, 19.7 mg/m^2, n = 3
[11] = multiple doses (day 15, cycle 1), oral once daily, 29.6 mg/m^2, n = 4
[12] = multiple doses (day 15, cycle 1), oral once daily, 41.4 mg/m^2, n = 3
[13] = multiple doses (day 15, cycle 1), oral once daily, 55.0 mg/m^2, n = 4
[14] = multiple doses (day 15, cycle 1), oral once daily, 73.0 mg/m^2, n = 3
[15] = multiple doses (day 15, cycle 1), oral once daily, 126.6 mg/m^2, n = 2
[16] = single dose, oral, 3.0 mg/m^2, n = 3
[17] = single dose, oral, 4.2 mg/m^2, n = 3
[18] = single dose, oral, 5.9 mg/m^2, n = 5
[19] = single dose, oral, 11.8 mg/m^2, n = 3
[20] = single dose, oral, 19.7 mg/m^2, n = 3
[21] = single dose, oral, 29.6 mg/m^2, n = 4
[22] = single dose, oral, 41.4 mg/m^2, n = 3
[23] = single dose, oral, 55.0 mg/m^2, n = 5
[24] = single dose, oral, 73.0 mg/m^2, n = 3
[25] = single dose, oral, 126.6 mg/m^2, n = 2

11-(2-methylpropyl)-12,13-dihydro-2-methyl-8-(pyrimidin-2-ylamino)-4H-indazolo[5,4-a]pyrrolo[3,4-c]carbazol-4-one [CEP-11981]
IC50 [1]: 3 nM | IC50 [2]: 22 nM | DLTs ([3]; 97.4 mg/m^2 cohort, n = 9): no DLTs were observed | Patients with DLTs ([3]; 126.6 mg/m^2 cohort, n = 2): 2 patients | Maximum-tolerated dose (MTD) ([3]; oral once daily, first 28 days of each 42-day cycle, patients with solid tumors): 97.4 mg/m^2 | Mean (SD) AUC0-24 ([4]; human, in vivo, po, 97.4 mg/m2): 5,320.4 (1,459.11) ng•hr/mL | Mean (SD) Cmax ([4]; human, in vivo, po, 97.4 mg/m2): 526.4 (185.68) ng/mL | Mean (SD) t½ ([4]; human, in vivo, po, 97.4 mg/m2): 10.3 (4.59) hr | Median (range) Tmax ([4]; human, in vivo, po, 97.4 mg/m2): 4.0 (2.0–6.0) hr | Mean (SD) AUCτ [4, 6]: 165.3 (82.98) ng•hr/mL | Mean (SD) Cmax [4, 6]: 16.1 (2.35) ng/mL | Mean (SD) t½ [4, 6]: 8.0 (2.92) hr | Median (range) Tmax [4, 6]: 2.9 (1.5–4.0) hr | Mean (SD) AUCτ [4, 7]: 201.7 (46.72) ng•hr/mL | Mean (SD) Cmax [4, 7]: 24.3 (9.23) ng/mL | Mean (SD) t½ [4, 7]: 9.9 (4.55) hr | Median (range) Tmax [4, 7]: 3.9 (1.5–4.0) hr | Mean (SD) AUCτ [4, 8]: 278.0 (69.45) ng•hr/mL | Mean (SD) Cmax [4, 8]: 32.4 (8.40) ng/mL | Mean (SD) t½ [4, 8]: 6.6 (1.51) hr | Median (range) Tmax [4, 8]: 3.0 (1.3–6.0) hr | Mean (SD) AUCτ [4, 9]: 763.7 (128.14) ng•hr/mL | Mean (SD) Cmax [4, 9]: 98.1 (5.64) ng/mL | Mean (SD) t½ [4, 9]: 12.3 (9.70) hr | Median (range) Tmax [4, 9]: 2.0 (1.6–2.1) hr | Mean (SD) AUCτ [4, 10]: 1,102.3 (734.79) ng•hr/mL | Mean (SD) Cmax [4, 10]: 128.5 (98.34) ng/mL | Mean (SD) t½ [4, 10]: 5.4 (1.20) hr | Median (range) Tmax [4, 10]: 4.0 (1.5–4.0) hr | Mean (SD) AUCτ [4, 11]: 2,923.5 (2,939.79) ng•hr/mL | Mean (SD) Cmax [4, 11]: 218.8 (130.35) ng/mL | Mean (SD) t½ [4, 11]: 8.7 (5.74) hr | Median (range) Tmax [4, 11]: 4.5 (2.0–8.0) hr | Mean (SD) AUCτ [4, 12]: 3,256.0 (1,816.44) ng•hr/mL | Mean (SD) Cmax [4, 12]: 412.6 (93.94) ng/mL | Mean (SD) t½ [4, 12]: 10.3 (6.33) hr | Median (range) Tmax [4, 12]: 2.1 (1.7–3.1) hr | Mean (SD) AUCτ [4, 13]: 4,313.3 (1,091.33) ng•hr/mL | Mean (SD) Cmax [4, 13]: 320.7 (75.09) ng/mL | Mean (SD) t½ [4, 13]: 12.8 (4.32) hr | Median (range) Tmax [4, 13]: 5.2 (3.0–8.0) hr | Mean (SD) AUCτ [4, 14]: 9,429.0 (3,993.74) ng•hr/mL | Mean (SD) Cmax [4, 14]: 713.0 (30.38) ng/mL | Mean (SD) t½ [4, 14]: 13.9 (9.48) hr | Median (range) Tmax [4, 14]: 3.3 (3.1–3.5) hr | Mean (SD) AUCτ [4, 15]: 23,565.0 (0) ng•hr/mL | Mean (SD) Cmax [4, 15]: 1,481.5 (0) ng/mL | Mean (SD) t½ [4, 15]: 14.7 (0) hr | Median (range) Tmax [4, 15]: 8.0 (8.0–8.0) hr | Mean (SD) Robs (observed accumulation ratio) ([4]; oral once daily, 3.0 mg/m^2, n = 3): 1.3 (0.62) | Mean (SD) Robs (observed accumulation ratio) ([4]; oral once daily, 4.2 mg/m^2, n = 3): 1.8 (0.64) | Mean (SD) Robs (observed accumulation ratio) ([4]; oral once daily, 5.9 mg/m^2, n = 5): 1.5 (0.59) | Mean (SD) Robs (observed accumulation ratio) ([4]; oral once daily, 11.8 mg/m^2, n = 3): 1.5 (0.15) | Mean (SD) Robs (observed accumulation ratio) ([4]; oral once daily, 19.7 mg/m^2, n = 3): 1.2 (0.29) | Mean (SD) Robs (observed accumulation ratio) ([4]; oral once daily, 29.6 mg/m^2, n = 4): 1.1 (1.24) | Mean (SD) Robs (observed accumulation ratio) ([4]; oral once daily, 41.4 mg/m^2, n = 3): 1.3 (0.46) | Mean (SD) Robs (observed accumulation ratio) ([4]; oral once daily, 55.0 mg/m^2, n = 4): 1.9 (0.19) | Mean (SD) Robs (observed accumulation ratio) ([4]; oral once daily, 73.0 mg/m^2, n = 3): 1.9 (0.14) | Mean (SD) AUC0-24 [4, 16]: 127.0 (16.09) ng•hr/mL | Mean (SD) Cmax [4, 16]: 13.7 (6.14) ng/mL | Mean (SD) t½ [4, 16]: 8.0 (2.82) hr | Median (range) Tmax [4, 16]: 6.0 (2.0–6.1) hr | Mean (SD) Rpred (predicted accumulation ratio) [4, 16]: 1.2 (0.15) | Mean (SD) AUC0-24 [4, 17]: 119.3 (14.36) ng•hr/mL | Mean (SD) Cmax [4, 17]: 16.8 (4.88) ng/mL | Mean (SD) t½ [4, 17]: 7.8 (3.69) hr | Median (range) Tmax [4, 17]: 4.0 (1.0–6.0) hr | Mean (SD) Rpred (predicted accumulation ratio) [4, 17]: 1.2 (0.12) | Mean (SD) AUC0-24 [4, 18]: 194.8 (66.56) ng•hr/mL | Mean (SD) Cmax [4, 18]: 26.0 (6.53) ng/mL | Mean (SD) t½ [4, 18]: 5.9 (1.06) hr | Median (range) Tmax [4, 18]: 2.1 (1.5–4.0) hr | Mean (SD) Rpred (predicted accumulation ratio) [4, 18]: 1.1 (0.05) | Mean (SD) AUC0-24 [4, 19]: 516.7 (125.82) ng•hr/mL | Mean (SD) Cmax [4, 19]: 84.9 (23.01) ng/mL | Mean (SD) t½ [4, 19]: 6.0 (3.66) hr | Median (range) Tmax [4, 19]: 1.6 (1.5–3.0) hr | Mean (SD) Rpred (predicted accumulation ratio) [4, 19]: 1.1 (0.12) | Mean (SD) AUC0-24 [4, 20]: 874.0 (357.79) ng•hr/mL | Mean (SD) Cmax [4, 20]: 135.7 (76.46) ng/mL | Mean (SD) t½ [4, 20]: 5.1 (1.33) hr | Median (range) Tmax [4, 20]: 4.0 (1.0–4.3) hr | Mean (SD) Rpred (predicted accumulation ratio) [4, 20]: 1.0 (0.06) | Mean (SD) AUC0-24 [4, 21]: 2,376.3 (2,064.06) ng•hr/mL | Mean (SD) Cmax [4, 21]: 266.9 (181.95) ng/mL | Mean (SD) t½ [4, 21]: 8.5 (5.48) hr | Median (range) Tmax [4, 21]: 2.3 (1.0–3.1) hr | Mean (SD) Rpred (predicted accumulation ratio) [4, 21]: 1.2 (0.22) | Mean (SD) AUC0-24 [4, 22]: 2,820.3 (2,070.39) ng•hr/mL | Mean (SD) Cmax [4, 22]: 351.9 (94.39) ng/mL | Mean (SD) t½ [4, 22]: 8.1 (4.54) hr | Median (range) Tmax [4, 22]: 2.0 (1.0–4.0) hr | Mean (SD) Rpred (predicted accumulation ratio) [4, 22]: 1.2 (0.21) | Mean (SD) AUC0-24 [4, 23]: 2,274.0 (666.44) ng•hr/mL | Mean (SD) Cmax [4, 23]: 251.9 (119.68) ng/mL | Mean (SD) t½ [4, 23]: 9.5 (2.57) hr | Median (range) Tmax [4, 23]: 3.0 (3.0–4.0) hr | Mean (SD) Rpred (predicted accumulation ratio) [4, 23]: 1.2 (0.11) | Mean (SD) AUC0-24 [4, 24]: 3,938.7 (1,965.70) ng•hr/mL | Mean (SD) Cmax [4, 24]: 444.2 (149.44) ng/mL | Mean (SD) t½ [4, 24]: 8.1 (2.19) hr | Median (range) Tmax [4, 24]: 4.0 (3.0–4.1) hr | Mean (SD) Rpred (predicted accumulation ratio) [4, 24]: 1.2 (0.10) | Mean (SD) AUC0-24 [4, 25]: 5,767.0 (0) ng•hr/mL | Mean (SD) Cmax [4, 25]: 751.2 (41.49) ng/mL | Median (range) Tmax [4, 25]: 5.0 (2.0–8.0) hr | IC50 [5]: 13 nM
